{
  "source": "patent US20250034139A1",
  "about": "“AMINE COMPOUNDS HAVING ANTI-INFLAMMATORY, ANTIFUNGAL, ANTIPARASITIC, AND ANTICANCER ACTIVITY” (PHARMA CINQ, LLC, priority 2013, published 2025)",
  "key": {"[1]": {"system": "Hep3B hepatocellular carcinoma cell line", "conditions": "for Tumor Weight (g) Mean ± SEM: Hep3B in liver of nude mice, day 35, oral daily, sorafenib 30 mg/kg/day alone, 20 mg/kg/day in combination, AC 180, AK and AB 360 μmol/kg/day; for Body Weight (g) Mean ± SEM Initial: in vivo; for Complete Regressions: number of mice with no viable tumor at necropsy, doses as Table 35", "source_text": "Hepatocellular carcinoma (HCC) is one of the most common and lethal cancers worldwide, generally developing as a consequence of chronic infection with hepatitis B or C viruses. […] The Hep3B hepatocellular carcinoma cell line is human in origin, contains genetic traces of hepatitis B virus, and can be injected into the livers of athymic immunocompromised mice as a model of primary HCC. […] The test compounds were all administered orally.\nThe test compounds of the invention were suspended in 1% hydroxypropylmethylcellulose (HPMC) using a sonicator equipped with a microtip to minimize particle size and maximize uniformity of the suspension. Sorafenib was dissolved in a 1:1 mixture of Cremophor EL and ethanol by heating to 60° C. for 1 minute and then sonicating for 10 minutes to fully suspend. Female nude mice (Hsd:athymic nude-Foxn1^nu) weighing approximately 25 g were anesthetized with ketamine/xylazine, laid on their backs, and a 1-cm transverse incision made through the skin and peritoneum of the left upper abdomen. The mediant lobe of the liver was exposed by applying gentle pressure on the abdomen. 1.5-2×10^6 Hep3B cells in a 20 μL volume of matrigel:EMEM serum free (1:1) were slowly implanted by subserosal injection into the liver using a 27-gauge needle on a Hamilton syringe. The liver was allowed to slip back into place, and the peritoneum was closed with sutures and wound clips.\nMice were divided into 8 groups of mice each following injection of cells; the vehicle/vehicle group comprised 12 mice and the other groups comprised 8 or 9. Mice began receiving oral test drug treatments 48 hr post cell injection.\nThe test compounds, sorafenib, and vehicles were administered by oral gavage. Sorafenib or its cremophor-containing vehicle were given in the morning and compounds of the invention or their HPMC vehicle was administered in the afternoon each day; all animals received two gavage treatments of drugs or appropriate vehicles daily."}, "[2]": {"system": "Vit-D3 activated THP-1 cells", "assay": "Example B: Acridine Orange (A.O.) uptake, lysosomal acidification and integrity", "format": "cell-based, Human", "conditions": "5 hours", "experimental": "In this experiment, cell viability was monitored and uptake and accumulation of acridine orange, a lysosomotropic fluorescent dye, was used to assess lysosomal acidification and integrity. JC-1 dye was used to measure effects of test compounds on mitochondrial membrane potential (MMP); reduction of MMP is a feature of apoptotic cell death. • 1. […] The tubes were washed twice in DPBS, resuspended in 500 μl DPBS and acquired on the FACSCalibur."}, "[3]": {"system": "TPA induced chronic skin inflammation", "assay": "Example E: TPA induced chronic skin inflammation mouse model, ear thickness", "format": "in vivo", "source_text": "Objective: To evaluate the anti-inflammatory properties of compounds of the invention in a 12-O-tetradecanoylphorbol-13-acetate (TPA) induced chronic skin inflammation mouse model.\nTopically applied phorbol esters such as TPA induce skin inflammation involving edema, macrophage and T cell infiltration and epidermal hyperplasia (Alford et al., 1992), and this system has been used as an animal model for dermatitis, mimicking aspects of human inflammatory skin disorders. TPA is also known as a tumor promoter, so that agents which inhibit hyperproliferative or angiogenic actions of TPA may inhibit tumor promotion.\nDrug formulations: Compound AC was dissolved in isopropyl myristate:propylene glycol (1:1)+0.9% DMSO at the indicated concentrations. TPA was dissolved in acetone:water (99:1). Dexamethasone (0.06%) was dissolved in normal saline.\nMice: HSD-ICR(CD-1R) female mice at 8-10 weeks of age were used in this experiment.\nExperimental Design: Mice were placed into six groups of 10 mice each. 20 μL of 0.01% TPA was administered to each ear on days 0, 2, 4, 7, 9, 11, 13, 15, 18, 20, and 22. 20 μL of AC at various concentrations or 20 μL of dexamethasone solution was applied to the ears daily beginning on day 7, after inflammatory changes in ear thickness were established. Ear thickness was measured with calipers every three days."}, "[4]": {"system": "4T1 mouse mammary breast cancer cells", "assay": "Example O: syngeneic 4T1 breast cancer growth in Balb/C mice", "format": "in vivo", "conditions": "4T1 in female Balb/C mice; for Final Tumor Volume: 120 μmol/kg/day oral gavage, day 2 to day 30; for Δ BW % / Final Body Weight / Initial Body Weight: 120 μmol/kg/day oral; for Δ BW %: final vs initial body weight; for Final Body Weight: in g (unit assumed); for Initial Body Weight: initial (baseline)", "experimental": "Cancer models in mice generally either involve syngeneic murine tumors in immunocompetent mice or xenografts of human tumors in immunocompromised mice. […] Mice received test compounds by oral gavage in 1% hydroxypropylmethylcellulose from day 2 until day 30. Tumor growth was assessed by caliper measurements twice per week and tumor weight after necropsy, and body weight was also monitored. Treatment groups were: • 1. […] HPMC) • 2. CI (120 μmol/kg/day) • 3. BA (120 μmol/kg/day) • 4. CP (120 μmol/kg/day) • 5. CQ (120 μmol/kg/day) • 6. AA (120 μmol/kg/day) • 7. AC (120 μmol/kg/day)"}, "[5]": {"system": "HCT-116 colon adenocarcinoma cells", "assay": "Example Q: HCT-116 liver metastases of human colorectal cancer in nude mice", "format": "in vivo", "conditions": "240 μmol/kg/day oral, 28 days", "source_text": "A major cause of morbidity and mortality in patients with colorectal cancer is metastasis of the tumor into the liver; colorectal cancer can often be successfully resected from the primary site, but metastases to the liver are much less accessible to surgical treatment. A mouse model of colorectal cancer metastasis to the liver has been established, using HCT-116 colon adenocarcinoma cells injected into the spleen of athymic (nude) mice. The HCT-116 cancer cells spontaneously spread from the spleen into the liver via the circulation, and they form tumors in the liver (Ishizu, K., Sunose, N., Yamazaki, K., Tsuruo, T., Sadahiro, S., Makuuchi, H., and Yamori, T. Development and Characterization of a Model of Liver Metastasis Using Human Colon Cancer HCT-116. Biol. Pharm. Bull. 2007, 30(9):1779-1783).\nMice (female Hsd:athymic nude-Foxn1^nu) were anesthetized with xylazine/ketamine intraperitoneal injection, followed by incision approximately 10 mm on the left subcostal region (area disinfected with ethanol) to expose the peritoneum. The peritoneum was opened for about 8 mm near the spleen, and 2.5×10^6 cells in 50 μL PBS were injected into the spleen using a 30G needle. The spleen was repositioned, and the surgical area was closed using sutures and clips.\nThe day after receiving cells, mice were randomized into groups of five based upon body weight to provide groups with approximately equivalent mean body weight. Mice received a single, daily oral dose of test article or vehicle (1% hydroxypropylmethylcellulose) beginning 48 hours following cell injection into the spleen.\nAt study termination 28 days after HCT-116 cell injection, body weights were recorded, and spleens and livers were removed, weighed and fixed in 10% formalin. Livers were sectioned and stained; the relative areas of normal and tumor tissue were quantified in histology sections with quantitative planimetry software."}, "[6]": {"conditions": "HCT-116 liver metastases, nude mice"}},
  "note": "Marks after values point to notes of the source that are not given here.",
  "data": [
    {"smiles": "CCCCCCOc1cccc(CNc2ncnc3ccccc23)c1", "note": "[AK, N-[3-(Hexyloxy)benzyl]quinazolin-4-amine]", "values": [
      {"measurement": "Tumor Weight (g) Mean ± SEM", "setting": "[1]", "result": "1.56 ± 0.39^ g"},
      {"measurement": "Body Weight (g) Mean ± SEM Initial", "setting": "[1]", "result": "25.9 ± 0.7", "unit": "g"},
      {"measurement": "Complete Regressions", "setting": "[1]; day 35", "result": 2},
      {"measurement": "reduction of tumor size versus vehicle", "setting": "[1]; single agents, oral, day 35, sorafenib 30 mg/kg/day", "result": "numerically but not statistically significant reduction in tumor size versus vehicle"}
    ]},
    {"smiles": "CCCCCCOc1cccc(CNc2ccnc3ccccc23)c1", "note": "[Compound AC, N-[3-(Hexyloxy)benzyl]quinolin-4-amine]", "values": [
      {"measurement": "A.O. FL-3 fluorescence (MFI) percent change from DMSO no LPS, Mean ± SE", "setting": "[2]; 0.1 μM AC, 1 ng/ml LPS", "result": "−54.72 ± 2.74", "unit": "%"},
      {"measurement": "A.O. FL-3 fluorescence (MFI) percent change from DMSO no LPS, Mean ± SE", "setting": "[2]; 0.1 μM AC, No LPS", "result": "−27.64 ± 9.68", "unit": "%"},
      {"measurement": "A.O. FL-3 fluorescence (MFI) percent change from DMSO no LPS, Mean ± SE", "setting": "[2]; 0.5 μM AC, 1 ng/ml LPS", "result": "−68.24 ± 2.39", "unit": "%"},
      {"measurement": "A.O. FL-3 fluorescence (MFI) percent change from DMSO no LPS, Mean ± SE", "setting": "[2]; 0.5 μM AC, No LPS", "result": "−54.59 ± 4.05", "unit": "%"},
      {"measurement": "A.O. FL-3 fluorescence (MFI) percent change from DMSO no LPS, Mean ± SE", "setting": "[2]; 1.0 μM AC, 1 ng/ml LPS", "result": "−81.11 ± 2.65", "unit": "%"},
      {"measurement": "A.O. FL-3 fluorescence (MFI) percent change from DMSO no LPS, Mean ± SE", "setting": "[2]; 1.0 μM AC, No LPS", "result": "−69.52 ± 2.05", "unit": "%"},
      {"measurement": "Ear thickness (mm)", "setting": "[3]; day 22, 0.0125 mg/ear daily topical from day 7, TPA-treated mice", "result": "0.362 ± 0.0394", "unit": "mm"},
      {"measurement": "Ear thickness (mm)", "setting": "[3]; day 22, 0.025 mg/ear daily topical from day 7, TPA-treated mice", "result": "0.390 ± 0.0319", "unit": "mm"},
      {"measurement": "Ear thickness (mm)", "setting": "[3]; day 22, 0.05 mg/ear daily topical from day 7, TPA-treated mice", "result": "0.391 ± 0.0334", "unit": "mm"},
      {"measurement": "Ear thickness (mm)", "setting": "[3]; day 22, 0.075 mg/ear daily topical from day 7, TPA-treated mice", "result": "0.395 ± 0.0438", "unit": "mm"},
      {"measurement": "Histology of TPA-treated ears, in words", "setting": "[3]; topical AC", "result": "both TPA-induced edema and epidermal hyperplasia were reduced by AC, as was angiogenesis"},
      {"measurement": "Final Tumor Volume", "setting": "[4]", "result": "723 ± 185", "unit": "mm^3"},
      {"measurement": "Δ BW %", "setting": "[4]", "result": "−8.4", "unit": "%"},
      {"measurement": "Final Body Weight", "setting": "[4]", "result": "19.7 ± 1.1"},
      {"measurement": "Initial Body Weight", "setting": "[4]", "result": "21.5 ± 1.0", "unit": "g"},
      {"measurement": "excess of the Vehicle group's liver weight/body weight ratio over the treated group", "setting": "[5]", "result": 12, "unit": "%"},
      {"measurement": "area of liver invaded by metastatic cancer cells, in words", "setting": "[5]; histology planimetry", "result": "markedly reduced the area of liver invaded by metastatic cancer cells"},
      {"measurement": "Tumor Weight (g) Mean ± SEM", "setting": "[1]", "result": "0.49 ± 0.17", "unit": "g"},
      {"measurement": "Body Weight (g) Mean ± SEM Initial", "setting": "[1]", "result": "25.4 ± 0.5", "unit": "g"},
      {"measurement": "Complete Regressions", "setting": "[1]; day 35", "result": 2}
    ]},
    {"smiles": "CCCCCCOc1ccc(CNc2ccnc3ccccc23)cc1", "note": "[AA, N-[4-(Hexyloxy)benzyl]quinolin-4-amine]", "values": [
      {"measurement": "Final Tumor Volume", "setting": "[4]", "result": "563 ± 175", "unit": "mm^3"},
      {"measurement": "Δ BW %", "setting": "[4]", "result": "−5.1", "unit": "%"},
      {"measurement": "Final Body Weight", "setting": "[4]", "result": "20.3 ± 1.3"},
      {"measurement": "Initial Body Weight", "setting": "[4]", "result": "21.4 ± 1.0", "unit": "g"},
      {"measurement": "Final Body Weight Grams", "setting": "[5]; [6]", "result": "28.2 ± 1.5", "unit": "NS Grams"},
      {"measurement": "Liver Weight % of Body Weight", "setting": "[5]; [6]", "result": "5.3 ± 0.2", "unit": "%"},
      {"measurement": "Tumor Area % of Vehicle Group", "setting": "[5]; [6]", "result": 1.5, "unit": "% *"},
      {"measurement": "Tumor Area % of Total Liver", "setting": "[5]; HCT-116 liver metastases, nude mice, histology planimetry", "result": "0.2 ± 0.26", "unit": "%"}
    ]}
  ]
}
